We go through 6 compounds from ChEMBL document CHEMBL3792297, “Studies on phenothiazines: New microtubule-interacting compounds with phenothiazine A-ring as potent antineoplastic agents” (Bioorg Med Chem, 2016).

Format in all cases: functional
Experiment [1] can be described thus: Growth inhibition of human HOP92 cells at 10 uM after 48 hrs by SRB assay relative to control. The following applies: HOP-92, 48 h, read-out: GI. A general note: The SRB assay estimates cell density from bound dye.
Experiment [2] in a line: Growth inhibition of human OVCAR4 cells at 10 uM after 48 hrs by SRB assay relative to control. As to conditions: OVCAR-4, 48 h, read-out: GI.
For a further experiment, the system named is ACHN. In words: Growth inhibition of human ACHN cells at 10 uM after 48 hrs by SRB assay relative to control. As to conditions: read-out: GI.
The nature of experiment [3]: Growth inhibition of human RXF393 cells at 10 uM after 48 hrs by SRB assay relative to control. The following applies: RXF 393, 48 h, read-out: GI.
For a further experiment, the system named is SR. In words: Growth inhibition of human SR cells at 10 uM after 48 hrs by SRB assay relative to control. As to conditions: read-out: GI.
In another experiment the test system is 786-0. Nature of the experiment: Growth inhibition of human 786-0 cells at 10 uM after 48 hrs by SRB assay relative to control. As to conditions: 786-0, 48 h, read-out: GI.
A short description of experiment [4]: Growth inhibition of human Caki1 cells at 10 uM after 48 hrs by SRB assay relative to control. The following applies: CAKI-1, 48 h, read-out: GI.
For a further experiment, the system named is T47D. Nature of the experiment: Growth inhibition of human T47D cells at 10 uM after 48 hrs by SRB assay relative to control. The following applies: read-out: GI.
In another experiment the test system is HT-29. In words: Growth inhibition of human HT-29 cells at 10 uM after 48 hrs by SRB assay relative to control. As to conditions: HT-29, 48 h, read-out: GI.
The test system of the next experiment is K562. Nature of the experiment: Growth inhibition of human K562 cells at 10 uM after 48 hrs by SRB assay relative to control. The following applies: K562, 48 h, read-out: GI.
Experiment [5] is described as follows: Growth inhibition of human SF539 cells at 10 uM after 48 hrs by SRB assay relative to control. As to conditions: SF-539, 48 h, read-out: GI.
The subject of the next experiment is MDA-MB-435. Nature of the experiment: Growth inhibition of human MDA-MB-435 cells at 10 uM after 48 hrs by SRB assay relative to control. The following applies: MDA-MB-435, 48 h, read-out: GI.
Experiment [6] can be described thus: Growth inhibition of human BT549 cells at 10 uM after 48 hrs by SRB assay relative to control. The following applies: BT-549, 48 h, read-out: GI.
Experiment [7] in a line: Growth inhibition of human DU145 cells at 10 uM after 48 hrs by SRB assay relative to control. As to conditions: DU-145, 48 h, read-out: GI.
A further experiment has as its system SK-MEL-5. Nature of the experiment: Growth inhibition of human SK-MEL-5 cells at 10 uM after 48 hrs by SRB assay relative to control. The following applies: SK-MEL-5, 48 h, read-out: GI.
The nature of experiment [8]: Growth inhibition of human SNB75 cells at 10 uM after 48 hrs by SRB assay relative to control. As to conditions: SNB-75, 48 h, read-out: GI.
For another experiment, the system named is A498. In words: Growth inhibition of human A498 cells at 10 uM after 48 hrs by SRB assay relative to control. The following applies: A498, 48 h, read-out: GI.
Experiment [9] is described as follows: Growth inhibition of human OVCAR5 cells at 10 uM after 48 hrs by SRB assay relative to control. The following applies: OVCAR-5, 48 h, read-out: GI.
A further experiment relates to Malme-3M. In words: Growth inhibition of human MALME-3M cells at 10 uM after 48 hrs by SRB assay relative to control. The following applies: read-out: GI.
In another experiment the test system is NCI-H460. Nature of the experiment: Growth inhibition of human NCI-H460 cells at 10 uM after 48 hrs by SRB assay relative to control. The following applies: NCI-H460, 48 h, read-out: GI.
A further experiment deals with NCI-H522. In words: Growth inhibition of human NCI-H522 cells at 10 uM after 48 hrs by SRB assay relative to control. As to conditions: NCI-H522, 48 h, read-out: GI.
Experiment [10] is described as follows: Growth inhibition of human OVCAR3 cells at 10 uM after 48 hrs by SRB assay relative to control. As to conditions: OVCAR-3, 48 h, read-out: GI.

Each structure is given as a SMILES string.

Take `O=C(c1ccc(Cl)cc1Cl)N1c2ccccc2Sc2ccccc21`: the inhibition of growth at 10 µM in experiment [1] came out at 28%; in experiment [2] it was 18%; with ACHN, 39%; in [3] it was 30%; in the experiment on SR it was 68%; with 786-0 it was 33%. The inhibition of growth at 10 µM worked out at 50% in experiment [4]; 33% in the experiment on T47D; 52% in the experiment on HT-29; 100% in the experiment with K562; 58% in [5]; 52% in the experiment on MDA-MB-435. Moreover, the inhibition of growth at 10 µM came to 45% in experiment [6]; 35% in experiment [7]; 65% with SK-MEL-5; 40% in experiment [8]; 31% with A498; 29% in experiment [9]. In addition, the inhibition of growth at 10 µM turned out to be 36% with Malme-3M, 82% with NCI-H460, 36% in the experiment on NCI-H522 and 41% in [10].
Consider `O/N=C(/c1ccc2c(c1)Sc1ccccc1N2)c1c[nH]c2ccccc12`, for which the inhibition of growth at 10 µM came to 51% in [1]; 26% in experiment [2]; 17% in the experiment on ACHN; 24% in [3]; 91% in the experiment with SR; 38% with 786-0. Besides, the inhibition of growth at 10 µM in experiment [4] stood at 53%; with HT-29, 84%; with K562, 87%; in experiment [5] it was 29%; in the experiment on MDA-MB-435, 100%; in [6], 63%. Moreover, the inhibition of growth at 10 µM is 41% in [7]; 40% with SK-MEL-5; 47% in experiment [8]; 53% in the experiment with A498; 31% in [9]; 45% with Malme-3M. The values for the inhibition of growth at 10 µM (in the experiment with NCI-H460; in the experiment with NCI-H522; in experiment [10]) were 82%, 100% and 96%, respectively.
For `O=C(c1ccc(F)c(Cl)c1)N1c2ccccc2Sc2ccccc21`, the inhibition of growth at 10 µM worked out at 63% in experiment [1]; 20% in experiment [2]; 0% in the experiment with ACHN; 29% in [3]; 66% in the experiment with SR; 20% in the experiment on 786-0. The inhibition of growth at 10 µM in [4] came out at 47%; with T47D, 39%; in the experiment with HT-29, 64%; with K562, 79%; in experiment [5], 38%; in the experiment with MDA-MB-435, 92%. The inhibition of growth at 10 µM was found to be 42% in experiment [6]; 10% in experiment [7]; 66% with SK-MEL-5; 31% in experiment [8]; 38% in the experiment with A498; 13% in [9]. For the same compound, the inhibition of growth at 10 µM in the experiment with Malme-3M stood at 36%; in the experiment on NCI-H460, 1%; in the experiment with NCI-H522, 57%; in experiment [10] it was 37%.
Turning to `COc1ccc(C(=O)c2ccc3c(c2)Sc2cc(C(=O)c4ccc(OC)c(F)c4)ccc2N3C)cc1F`, the inhibition of growth at 10 µM was 1% in experiment [1]; 0% in experiment [2]; 0% in the experiment with ACHN; 2% in [3]; 4% in the experiment on SR; 23% in the experiment with 786-0. The inhibition of growth at 10 µM in [4] is 0%; in the experiment with HT-29 it was 5%; in the experiment on K562, 6%; in [5], 6%; in the experiment on MDA-MB-435, 0%; in [6] it was 34%. Besides, the inhibition of growth at 10 µM in experiment [7] came to 0%; in the experiment with SK-MEL-5 it was 4%; in experiment [8], 2%; in the experiment with A498, 5%; in [9] it was 0%; with Malme-3M, 5%. Moreover, the values for the inhibition of growth at 10 µM (in the experiment with NCI-H460; with NCI-H522; in [10]) were 0%, 20% and 16%, respectively.
For the compound `O=C(c1ccc(F)cc1F)N1c2ccccc2Sc2ccccc21`, the inhibition of growth at 10 µM in experiment [1] is 39%; in [2] it was 17%; with ACHN it was 20%; in [3] it was 35%; with SR it was 72%; with 786-0, 26%. Further, the inhibition of growth at 10 µM in experiment [4] is 51%; with T47D, 35%; with HT-29, 68%; in the experiment with K562 it was 82%; in experiment [5], 49%; in the experiment on MDA-MB-435, 80%. Besides, the inhibition of growth at 10 µM stood at 43% in [6]; 20% in [7]; 68% with SK-MEL-5; 31% in experiment [8]; 38% in the experiment on A498; 21% in experiment [9]. The inhibition of growth at 10 µM was found to be 44% in the experiment on Malme-3M, 80% in the experiment on NCI-H460, 41% in the experiment with NCI-H522 and 43% in experiment [10].
For `COc1ccc(C(=O)c2ccc3c(c2)Sc2ccccc2N3C)cc1F`, the inhibition of growth at 10 µM amounted to 17% in experiment [1]; 10% in experiment [2]; 0% in the experiment on ACHN; 11% in experiment [3]; 32% in the experiment on SR; 16% in the experiment on 786-0. For the same compound, the inhibition of growth at 10 µM in experiment [4] stood at 22%; with HT-29 it was 30%; with K562, 61%; in [5], 19%; with MDA-MB-435, 87%; in experiment [6], 58%. Besides, the inhibition of growth at 10 µM in experiment [7] was 0%; in the experiment with SK-MEL-5, 13%; in experiment [8], 1%; with A498 it was 45%; in experiment [9], 12%; with Malme-3M, 24%. The inhibition of growth at 10 µM was 13% in the experiment on NCI-H460, 22% in the experiment on NCI-H522 and 40% in experiment [10].
